US6908919B2, “Substituted polycyclic aryl and heteroaryl pyrazinones useful for selective inhibition of the coagulation cascade” (Pharmacia Corporation, priority 1999, dated 2005)

Assays:
[1] = molecular target: T1, recombinant soluble tissue factor and recombinant human factor VIIa (TF-VIIa) (Homo sapiens, UniProt P08709); test: TF-VIIa Assay; type: biochemical; details: for IC50: read-out: IC50 TF-VIIa; for inhibition at 30 µM: 1 h, at 30 µM inhibitor
T1 construct: conversion of coagulation factor VII to VIIa by Xa; purchased American Diagnostica, Greenwich Conn; host or cells: VIIa purchased; soluble TF made in house in E. coli

Human thrombin [2] = molecular target: T2, Human thrombin (Homo sapiens, UniProt P00734)
Human factor Xa = Human factor Xa (Homo sapiens, UniProt P00742); test: Xa Assay; type: biochemical; set-up: purchased Enzyme Research Laboratories, South Bend Ind; details: for % Inhibition Factor Xa (30 µM): at 30 µM inhibitor
Human thrombin [3] = molecular target: T2, Human thrombin; test: biochemical

T1 sequence (P08709 61-212 limits assumed): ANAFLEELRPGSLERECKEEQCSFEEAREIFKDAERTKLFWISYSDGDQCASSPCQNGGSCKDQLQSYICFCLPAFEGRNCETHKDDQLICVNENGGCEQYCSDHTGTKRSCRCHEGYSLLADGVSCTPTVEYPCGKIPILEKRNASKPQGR
T1 sequence (P08709 213-466 limits assumed): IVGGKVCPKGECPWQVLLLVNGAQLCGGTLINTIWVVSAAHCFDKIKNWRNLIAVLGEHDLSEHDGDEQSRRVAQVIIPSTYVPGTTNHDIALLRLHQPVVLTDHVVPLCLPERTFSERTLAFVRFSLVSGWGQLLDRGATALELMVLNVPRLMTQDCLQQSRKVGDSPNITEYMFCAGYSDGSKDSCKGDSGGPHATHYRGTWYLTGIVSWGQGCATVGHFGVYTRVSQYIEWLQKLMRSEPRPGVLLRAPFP
T1 sequence (P13726 33-251 partner limits assumed): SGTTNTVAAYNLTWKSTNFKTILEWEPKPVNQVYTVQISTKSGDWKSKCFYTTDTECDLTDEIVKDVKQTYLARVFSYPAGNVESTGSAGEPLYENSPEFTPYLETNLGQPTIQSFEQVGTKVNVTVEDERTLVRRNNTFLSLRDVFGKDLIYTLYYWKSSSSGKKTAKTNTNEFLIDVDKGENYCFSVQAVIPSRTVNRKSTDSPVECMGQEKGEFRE
Sequence of Human factor Xa (P00742 41-179 limits assumed): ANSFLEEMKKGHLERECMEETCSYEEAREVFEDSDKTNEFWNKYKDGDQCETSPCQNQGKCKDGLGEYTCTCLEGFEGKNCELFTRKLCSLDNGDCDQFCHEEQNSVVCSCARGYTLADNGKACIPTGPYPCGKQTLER
Sequence of Human factor Xa (P00742 235-488 limits assumed): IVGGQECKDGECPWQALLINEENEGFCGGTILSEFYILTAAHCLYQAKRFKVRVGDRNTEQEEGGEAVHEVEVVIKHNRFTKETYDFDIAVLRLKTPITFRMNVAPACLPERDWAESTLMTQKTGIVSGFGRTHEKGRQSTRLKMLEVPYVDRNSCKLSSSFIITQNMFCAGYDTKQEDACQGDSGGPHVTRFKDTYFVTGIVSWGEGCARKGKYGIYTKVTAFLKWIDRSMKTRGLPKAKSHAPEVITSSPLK

Row | IC50 [1] [nM] | % Inhibition Thrombin II (30 µM) (Human thrombin [2]) [%] | % Inhibition Factor Xa (30 µM) (Human factor Xa) [%] | inhibition at 30 µM [1] [%] | Structure (SMILES) | further results
1 | 31 | 23 | 27 |  | COC(=O)c1cc(N)cc(-c2c(Cl)nc(NC3CCC3)c(=O)n2CC(=O)NCc2ccc(C(=N)N)cc2)c1 [Example 127] | 
2 | 52 | 3 |  |  | N=C(N)c1ccc(CNC(=O)Cn2c(-c3cc(N)cc(C(=O)O)c3)cnc(NC3CCC3)c2=O)cc1 [Example 118] | IC50 (Human factor Xa): 52300 nM
3 | 18000 | 9 | 7 |  | N=C(NCc1ccccc1)c1ccc(CNC(=O)Cn2c(-c3cccc(N)c3)c(Cl)nc(NC3CCC3)c2=O)cc1 [Example 160] | 
4 |  | 6 |  | 10 | Nc1ccc(CNC(=O)Cn2c(-c3cccc(N)c3)c(Cl)nc(NC3CCC3)c2=O)cc1 [Example 158] | IC50 (Human factor Xa): > 30000 nM
5 |  | 2 | 11 | 1 | CC(C)Nc1nc(Cl)c(-c2cccc(N)c2)n(CC(=O)Nc2ccc(S(=O)(=O)NC(=N)N)cc2)c1=O [Example 155] | 
6 | 33 | 21 | 18 |  | COC(=O)c1cc(N)cc(-c2cnc(NC3CCC3)c(=O)n2CC(=O)NCc2ccc(C(=N)N)cc2)c1 [Example 117] | 
7 |  | 5 | 7 | 27 | CC(C)Nc1nc(Cl)c(-c2cccc(N)c2)n(CC(=O)NCc2ccc(C(N)=S)cc2)c1=O [Example 156] | 
8 | 63000 | 5 | 2 |  | CN(C)CCNC(=N)c1ccc(CNC(=O)Cn2c(-c3cccc(N)c3)c(Cl)nc(NC3CCC3)c2=O)cc1 [Example 166] | 
9 | 88400 | 7 |  |  | CC(C)NC(=N)c1ccc(CNC(=O)Cn2c(-c3cccc(N)c3)c(Cl)nc(NC3CCC3)c2=O)cc1 [Example 161] | 
10 | 1200 | 27 | 12 |  | N=C(N)c1ccc(CNC(=O)Cn2c(-c3ccccc3N)cnc(NC3CCC3)c2=O)cc1 [Example 116] | 
11 | 63000 | 5 | 4 |  | CN(C)CC/N=C(\NCCN(C)C)c1ccc(CNC(=O)Cn2c(-c3cccc(N)c3)c(Cl)nc(NC3CCC3)c2=O)cc1 [Example 165] | 
12 | 10 | 45 | 26 |  | N=C(N)c1ccc(CNC(=O)Cn2c(-c3cc(N)cc(N)c3)cnc(NC3CCC3)c2=O)cc1 [Example 119] | 
13 |  | 2 |  | 35 | C/N=C(/NC)c1ccc(CNC(=O)Cn2c(-c3cccc(N)c3)c(Cl)nc(NC3CCC3)c2=O)cc1 [Example 162] | 
14 | 230 | 29 | 17 |  | N=C(NC(=O)OCc1ccccc1)c1ccc(CNC(=O)Cn2c(-c3cccc(N)c3)c(Cl)nc(NC3CCC3)c2=O)cc1 [Example 151] | 
15 | 50 | 20 | 15 |  | CC(C)Nc1nc(Cl)c(-c2cc(N)ccc2SCC(=O)O)n(CC(=O)NCc2ccc(C(=N)N)cc2)c1=O [Example 110] | 
16 | 40000 | 4 |  |  | COCCNC(=N)c1ccc(CNC(=O)Cn2c(-c3cccc(N)c3)c(Cl)nc(NC3CCC3)c2=O)cc1 [Example 163] | 
17 | 26.1 |  |  |  | CC(C)Nc1nc(Cl)c(-c2cc(N)cc(C(=O)NCc3ccccn3)c2)n(CC(=O)NCc2ccc(C(=N)N)cc2)c1=O [Example 128-19] | inhibition at 100 µM (Human thrombin [3]; read-out: % Inhibition Thrombin II at 100 μM): 37%; inhibition at 100 µM (Human factor Xa; at 100 μM inhibitor): 18%
18 | 9.5 |  |  |  | CC(C)Nc1ncc(-c2cc(N)cc(N)c2)n(CC(=O)NCc2ccc(C(=N)N)cc2)c1=O [Example 121] | inhibition at 83 µM (Human thrombin [3]; read-out: % Inhibition Thrombin II at 83 μM): 44%; inhibition at 83 µM (Human factor Xa; at 83 μM inhibitor): 23%
19 |  |  | 8 | 12 | Nc1cccc(-c2c(Cl)nc(NC3CCC3)c(=O)n2CC(=O)NCc2ccc(-c3n[nH]c(=O)[nH]3)cc2)c1 [Example 153] | IC50 (Human thrombin [3]): > 30000 nM
20 |  |  |  | 5 | Nc1cccc(-c2c(Cl)nc(NC3CCC3)c(=O)n2CC(=O)NCc2ccc3ccnc(N)c3c2)c1 [Example 147] | IC50 (Human thrombin [3]): > 30000 nM; IC50 (Human factor Xa): > 30000 nM
21 |  | 5 | 2 | 24 | COCC/N=C(\NCCOC)c1ccc(CNC(=O)Cn2c(-c3cccc(N)c3)c(Cl)nc(NC3CCC3)c2=O)cc1 [Example 164] | 
